In assay [1] the target is Angiopoietin-1 receptor (Homo sapiens) (UniProt Q02763). In words: Selectivity interaction (SelectScreen profiling (Invitrogen)) EUB0000607a TEK. The note with it: at 2 µM.
In assay [2] the target is Death-associated protein kinase 2 (Homo sapiens) (UniProt Q9UIK4). Put plainly: Selectivity interaction (KinomeScan (DiscoverX)) EUB0000666a DAPK2. As to conditions: at 10 µM.
Assay [3] has as its target T1, Serine/threonine-protein kinase TAO2 (Homo sapiens) (UniProt Q9UL54).
T1 sequence (whole entry): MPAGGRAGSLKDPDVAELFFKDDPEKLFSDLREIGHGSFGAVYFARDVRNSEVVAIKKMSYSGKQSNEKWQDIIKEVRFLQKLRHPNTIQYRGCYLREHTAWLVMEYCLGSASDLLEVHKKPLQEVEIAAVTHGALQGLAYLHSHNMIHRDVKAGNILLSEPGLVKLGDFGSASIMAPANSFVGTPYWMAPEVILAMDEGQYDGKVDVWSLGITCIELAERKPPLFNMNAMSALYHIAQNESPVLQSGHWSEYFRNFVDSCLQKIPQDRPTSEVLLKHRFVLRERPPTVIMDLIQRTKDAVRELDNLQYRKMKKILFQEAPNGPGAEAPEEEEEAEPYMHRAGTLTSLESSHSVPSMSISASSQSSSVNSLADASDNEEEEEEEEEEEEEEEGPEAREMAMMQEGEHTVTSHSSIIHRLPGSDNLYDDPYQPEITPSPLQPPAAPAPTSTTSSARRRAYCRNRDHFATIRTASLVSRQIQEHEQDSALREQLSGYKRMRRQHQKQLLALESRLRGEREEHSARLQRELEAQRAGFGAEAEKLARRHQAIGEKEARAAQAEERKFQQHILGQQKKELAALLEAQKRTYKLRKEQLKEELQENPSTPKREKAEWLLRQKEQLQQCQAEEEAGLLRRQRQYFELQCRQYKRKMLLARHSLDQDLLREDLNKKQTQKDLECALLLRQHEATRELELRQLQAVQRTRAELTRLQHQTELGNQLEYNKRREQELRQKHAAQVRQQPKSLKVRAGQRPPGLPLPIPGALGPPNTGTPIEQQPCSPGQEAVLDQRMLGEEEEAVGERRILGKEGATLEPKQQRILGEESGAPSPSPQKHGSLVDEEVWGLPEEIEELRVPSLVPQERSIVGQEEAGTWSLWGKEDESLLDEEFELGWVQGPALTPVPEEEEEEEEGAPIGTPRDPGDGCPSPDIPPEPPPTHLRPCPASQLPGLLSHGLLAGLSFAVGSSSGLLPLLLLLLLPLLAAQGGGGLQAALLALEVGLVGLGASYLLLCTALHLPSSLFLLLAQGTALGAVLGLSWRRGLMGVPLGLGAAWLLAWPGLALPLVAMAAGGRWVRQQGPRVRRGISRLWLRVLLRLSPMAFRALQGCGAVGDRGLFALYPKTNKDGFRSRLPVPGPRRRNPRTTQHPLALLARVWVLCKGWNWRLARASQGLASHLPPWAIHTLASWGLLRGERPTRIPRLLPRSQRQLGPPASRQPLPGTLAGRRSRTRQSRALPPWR
In words: Selectivity interaction (Kinase panel (literature)) EUB0001199aCl TAOK2. The note with it: at 1 µM.

The target of assay [4] is T2, Inhibitor of nuclear factor kappa-B kinase subunit beta (Homo sapiens) (UniProt O14920).
T2 sequence (whole entry): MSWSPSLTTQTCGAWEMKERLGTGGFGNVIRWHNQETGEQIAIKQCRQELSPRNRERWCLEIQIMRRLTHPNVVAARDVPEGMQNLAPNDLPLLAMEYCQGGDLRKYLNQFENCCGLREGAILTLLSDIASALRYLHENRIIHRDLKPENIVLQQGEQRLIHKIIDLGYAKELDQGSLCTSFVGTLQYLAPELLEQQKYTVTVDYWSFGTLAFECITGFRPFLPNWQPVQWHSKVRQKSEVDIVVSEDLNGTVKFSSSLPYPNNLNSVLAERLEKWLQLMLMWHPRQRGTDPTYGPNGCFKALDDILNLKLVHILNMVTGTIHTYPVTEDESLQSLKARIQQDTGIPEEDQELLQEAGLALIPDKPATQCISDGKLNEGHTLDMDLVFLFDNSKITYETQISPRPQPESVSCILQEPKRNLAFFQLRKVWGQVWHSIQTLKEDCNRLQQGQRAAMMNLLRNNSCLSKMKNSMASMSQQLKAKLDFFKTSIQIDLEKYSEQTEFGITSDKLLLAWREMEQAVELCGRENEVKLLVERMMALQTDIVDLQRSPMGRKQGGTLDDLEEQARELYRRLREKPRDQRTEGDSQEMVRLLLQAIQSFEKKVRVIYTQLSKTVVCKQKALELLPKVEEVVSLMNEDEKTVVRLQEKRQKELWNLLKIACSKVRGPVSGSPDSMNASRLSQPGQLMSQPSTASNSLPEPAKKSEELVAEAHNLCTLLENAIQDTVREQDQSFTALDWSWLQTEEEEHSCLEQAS
In words: Selectivity interaction (ActivX KiNativ screen (kinase selectivity in THP-1 cell lysates)) EUB0000639a IKBKB. The note with it: lysate, at 0.01 µM. It is filed as subcellular.

In assay [5] the target is 5'-AMP-activated protein kinase catalytic subunit alpha-1 (Homo sapiens, UniProt Q13131). Put plainly: Selectivity interaction (ActivX KiNativ screen (kinase selectivity in THP-1 cell lysates)) EUB0000639a PRKAA1. It is filed as subcellular. The note with it: lysate, at 0.01 µM.
Assay [6] deals with Myosin light chain kinase 2, skeletal/cardiac muscle (Homo sapiens) (UniProt Q9H1R3). The note with it: at 10 µM.
In assay [7] the target is Serine/threonine-protein kinase B-raf (Homo sapiens) (UniProt P15056). Put plainly: (§1) Selectivity interaction (KinomeScan (DiscoverX)) EUB0001049a BRAF. As to conditions: at 1 µM.
The test system of assay [8] is Serine/threonine-protein kinase B-raf (Homo sapiens), P15056 [V600E]. The assay is described as §1. The note with it: at 1 µM.
The target of assay [9] is Receptor tyrosine-protein kinase erbB-3 (Homo sapiens) (UniProt P21860). Put plainly: Selectivity interaction (KinomeScan (DiscoverX)) EUB0001049a ERBB3. As to conditions: at 1 µM.
Assay [10] deals with Transcription initiation factor TFIID subunit 1-like (Homo sapiens) (UniProt Q8IZX4). Put plainly: Selectivity interaction (Human bromodomain panel (DSF assay)) EUB0000233b TAF1L. A general note: Differential scanning fluorimetry follows unfolding on heating by fluorescence.
The target of assay [11] is Phosphatidylinositol 4-phosphate 5-kinase type-1 alpha (Homo sapiens) (UniProt Q99755). In words: Selectivity interaction (KinomeScan (DiscoverX)) EUB0000618a PIP5K1A. As to conditions: at 10 µM.

This passage reports % of inhibition, % of control and dTM results from ChEMBL document CHEMBL5465560, “Selectivity Literature for EUbOPEN Chemogenomic Library” (2024).

A value given as a limit tells only on which side of the number the result lay.

Sequence of Serine/threonine-protein kinase B-raf (Homo sapiens) (P15056 whole entry): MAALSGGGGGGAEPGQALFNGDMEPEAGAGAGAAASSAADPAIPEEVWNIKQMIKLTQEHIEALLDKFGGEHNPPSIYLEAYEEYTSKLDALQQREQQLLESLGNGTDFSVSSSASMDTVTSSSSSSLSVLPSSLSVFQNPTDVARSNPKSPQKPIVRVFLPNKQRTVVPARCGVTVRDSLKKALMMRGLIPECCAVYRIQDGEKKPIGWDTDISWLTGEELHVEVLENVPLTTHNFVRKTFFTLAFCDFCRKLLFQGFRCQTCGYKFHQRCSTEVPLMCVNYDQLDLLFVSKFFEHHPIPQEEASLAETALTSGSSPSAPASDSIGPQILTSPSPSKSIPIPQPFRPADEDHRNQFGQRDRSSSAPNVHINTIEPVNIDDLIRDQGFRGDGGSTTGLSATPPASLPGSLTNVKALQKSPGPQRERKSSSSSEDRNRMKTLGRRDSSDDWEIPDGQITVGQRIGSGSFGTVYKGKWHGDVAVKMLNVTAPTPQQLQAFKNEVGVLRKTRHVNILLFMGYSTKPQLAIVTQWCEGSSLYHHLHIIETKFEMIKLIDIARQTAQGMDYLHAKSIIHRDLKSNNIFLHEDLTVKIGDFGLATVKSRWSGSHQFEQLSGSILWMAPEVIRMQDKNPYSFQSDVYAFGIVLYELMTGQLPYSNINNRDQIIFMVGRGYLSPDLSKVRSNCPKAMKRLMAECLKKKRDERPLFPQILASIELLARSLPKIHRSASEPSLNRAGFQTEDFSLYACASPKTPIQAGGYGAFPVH
Sequence of Death-associated protein kinase 2 (Homo sapiens) (Q9UIK4 whole entry, looked up): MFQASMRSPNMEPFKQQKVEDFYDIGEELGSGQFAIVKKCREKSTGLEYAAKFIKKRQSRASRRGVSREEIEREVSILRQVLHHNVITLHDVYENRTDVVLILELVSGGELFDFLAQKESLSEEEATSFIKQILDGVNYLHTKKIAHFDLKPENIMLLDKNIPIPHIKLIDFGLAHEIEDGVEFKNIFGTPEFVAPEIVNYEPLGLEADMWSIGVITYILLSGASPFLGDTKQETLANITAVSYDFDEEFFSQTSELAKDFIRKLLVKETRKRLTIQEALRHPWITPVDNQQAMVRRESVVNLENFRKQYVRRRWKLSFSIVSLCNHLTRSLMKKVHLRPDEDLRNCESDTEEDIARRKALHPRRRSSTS
Sequence of Myosin light chain kinase 2, skeletal/cardiac muscle (Homo sapiens) (Q9H1R3 whole entry): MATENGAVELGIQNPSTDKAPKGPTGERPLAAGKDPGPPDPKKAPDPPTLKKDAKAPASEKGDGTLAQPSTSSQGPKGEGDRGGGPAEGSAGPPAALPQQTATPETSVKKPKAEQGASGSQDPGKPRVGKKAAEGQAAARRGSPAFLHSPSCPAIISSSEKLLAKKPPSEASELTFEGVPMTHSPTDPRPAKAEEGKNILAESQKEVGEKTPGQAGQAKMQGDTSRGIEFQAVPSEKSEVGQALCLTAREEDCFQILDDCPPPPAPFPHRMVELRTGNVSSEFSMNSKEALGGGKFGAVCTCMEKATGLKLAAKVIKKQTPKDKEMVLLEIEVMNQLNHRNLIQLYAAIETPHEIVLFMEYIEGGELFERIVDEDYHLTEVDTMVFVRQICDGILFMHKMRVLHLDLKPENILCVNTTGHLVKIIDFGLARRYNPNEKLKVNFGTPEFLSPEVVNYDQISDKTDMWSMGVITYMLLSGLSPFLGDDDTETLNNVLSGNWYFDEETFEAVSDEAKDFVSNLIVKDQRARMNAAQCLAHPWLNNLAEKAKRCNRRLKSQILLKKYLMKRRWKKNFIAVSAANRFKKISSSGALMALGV
Sequence of 5'-AMP-activated protein kinase catalytic subunit alpha-1 (Q13131 whole entry, looked up): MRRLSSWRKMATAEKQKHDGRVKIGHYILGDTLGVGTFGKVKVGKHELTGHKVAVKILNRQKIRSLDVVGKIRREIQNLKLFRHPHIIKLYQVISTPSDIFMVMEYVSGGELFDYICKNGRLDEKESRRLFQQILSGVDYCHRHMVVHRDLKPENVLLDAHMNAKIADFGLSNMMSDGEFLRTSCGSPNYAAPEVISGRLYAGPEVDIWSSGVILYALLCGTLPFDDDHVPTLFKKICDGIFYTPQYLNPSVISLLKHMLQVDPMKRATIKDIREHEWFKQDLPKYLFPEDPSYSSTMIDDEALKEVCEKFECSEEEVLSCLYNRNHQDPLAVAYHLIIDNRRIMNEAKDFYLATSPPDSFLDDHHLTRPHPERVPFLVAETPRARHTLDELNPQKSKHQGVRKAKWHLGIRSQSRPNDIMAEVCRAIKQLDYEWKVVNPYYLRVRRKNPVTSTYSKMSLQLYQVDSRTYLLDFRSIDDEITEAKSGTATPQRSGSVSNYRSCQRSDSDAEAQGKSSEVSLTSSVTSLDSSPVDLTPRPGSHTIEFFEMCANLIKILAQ
Sequence of Receptor tyrosine-protein kinase erbB-3 (Homo sapiens) (P21860 whole entry): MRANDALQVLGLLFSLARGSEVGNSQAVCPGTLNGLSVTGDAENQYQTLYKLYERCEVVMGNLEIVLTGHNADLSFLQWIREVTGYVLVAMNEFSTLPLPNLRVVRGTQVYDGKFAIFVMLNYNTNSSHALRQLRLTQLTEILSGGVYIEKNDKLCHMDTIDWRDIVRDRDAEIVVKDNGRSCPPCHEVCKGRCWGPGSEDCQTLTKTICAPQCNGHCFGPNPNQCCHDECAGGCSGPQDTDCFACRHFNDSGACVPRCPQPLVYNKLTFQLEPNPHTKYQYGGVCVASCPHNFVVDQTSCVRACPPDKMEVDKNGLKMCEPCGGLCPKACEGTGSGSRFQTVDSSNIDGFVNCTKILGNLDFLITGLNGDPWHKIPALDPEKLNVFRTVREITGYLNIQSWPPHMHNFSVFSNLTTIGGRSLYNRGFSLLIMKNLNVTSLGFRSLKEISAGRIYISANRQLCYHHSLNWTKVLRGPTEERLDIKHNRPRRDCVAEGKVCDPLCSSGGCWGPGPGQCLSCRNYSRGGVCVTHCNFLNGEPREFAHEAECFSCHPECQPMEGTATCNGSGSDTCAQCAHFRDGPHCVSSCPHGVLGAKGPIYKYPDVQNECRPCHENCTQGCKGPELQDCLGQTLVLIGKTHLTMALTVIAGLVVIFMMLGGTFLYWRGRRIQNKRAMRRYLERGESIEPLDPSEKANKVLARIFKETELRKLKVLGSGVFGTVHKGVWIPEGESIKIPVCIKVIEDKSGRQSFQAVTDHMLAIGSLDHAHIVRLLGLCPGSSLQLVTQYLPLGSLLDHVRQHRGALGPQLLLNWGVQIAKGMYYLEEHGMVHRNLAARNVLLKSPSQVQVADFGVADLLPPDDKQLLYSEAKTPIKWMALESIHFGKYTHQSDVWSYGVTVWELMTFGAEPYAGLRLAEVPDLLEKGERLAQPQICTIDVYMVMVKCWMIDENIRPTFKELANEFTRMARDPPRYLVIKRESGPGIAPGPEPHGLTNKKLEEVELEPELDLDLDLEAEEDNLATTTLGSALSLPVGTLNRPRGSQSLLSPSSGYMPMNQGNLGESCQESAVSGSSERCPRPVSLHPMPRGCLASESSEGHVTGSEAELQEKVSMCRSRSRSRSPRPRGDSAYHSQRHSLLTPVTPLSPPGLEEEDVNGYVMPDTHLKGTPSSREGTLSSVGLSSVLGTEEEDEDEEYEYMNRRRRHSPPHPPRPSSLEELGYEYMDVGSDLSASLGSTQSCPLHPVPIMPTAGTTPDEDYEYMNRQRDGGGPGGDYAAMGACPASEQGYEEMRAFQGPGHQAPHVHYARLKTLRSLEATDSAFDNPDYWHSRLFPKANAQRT
Sequence of Angiopoietin-1 receptor (Homo sapiens) (Q02763 whole entry): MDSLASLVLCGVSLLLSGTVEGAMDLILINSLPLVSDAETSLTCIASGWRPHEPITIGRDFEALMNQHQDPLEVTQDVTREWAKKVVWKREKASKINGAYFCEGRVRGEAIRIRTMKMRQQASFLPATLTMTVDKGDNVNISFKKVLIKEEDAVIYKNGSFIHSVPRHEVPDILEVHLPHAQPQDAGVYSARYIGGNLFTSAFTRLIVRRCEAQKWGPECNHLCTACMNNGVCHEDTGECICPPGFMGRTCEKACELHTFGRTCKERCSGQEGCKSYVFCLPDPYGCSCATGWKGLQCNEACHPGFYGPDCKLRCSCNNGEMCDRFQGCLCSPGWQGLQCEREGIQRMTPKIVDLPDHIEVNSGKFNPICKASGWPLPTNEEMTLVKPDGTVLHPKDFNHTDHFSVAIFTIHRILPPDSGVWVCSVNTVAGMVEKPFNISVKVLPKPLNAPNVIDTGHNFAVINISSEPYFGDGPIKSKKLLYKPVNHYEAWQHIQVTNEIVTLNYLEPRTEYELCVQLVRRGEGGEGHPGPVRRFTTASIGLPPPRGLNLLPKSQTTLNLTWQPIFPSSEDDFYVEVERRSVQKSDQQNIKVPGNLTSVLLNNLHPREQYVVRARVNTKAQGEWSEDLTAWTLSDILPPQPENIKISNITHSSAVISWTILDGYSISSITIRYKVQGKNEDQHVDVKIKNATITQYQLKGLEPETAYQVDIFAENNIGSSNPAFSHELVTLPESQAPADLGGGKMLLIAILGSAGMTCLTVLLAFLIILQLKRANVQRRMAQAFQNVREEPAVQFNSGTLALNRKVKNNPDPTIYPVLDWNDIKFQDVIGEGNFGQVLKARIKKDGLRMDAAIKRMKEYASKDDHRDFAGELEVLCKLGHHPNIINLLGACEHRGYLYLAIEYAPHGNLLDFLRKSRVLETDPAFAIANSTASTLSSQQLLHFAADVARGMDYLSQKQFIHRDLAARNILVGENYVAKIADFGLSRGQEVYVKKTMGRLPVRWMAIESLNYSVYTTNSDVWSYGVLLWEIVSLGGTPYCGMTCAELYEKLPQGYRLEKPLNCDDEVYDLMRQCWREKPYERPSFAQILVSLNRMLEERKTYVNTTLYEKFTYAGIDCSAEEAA
Sequence of Serine/threonine-protein kinase B-raf (Homo sapiens), P15056 [V600E] (P15056 whole entry V600E): as the sequence (P15056 whole entry) above, with V600E counted along it

As for `CNC(=O)Nc1ccc(-c2nc(N3CC4CCC(C3)O4)c3cnn(C4CCC5(CC4)OCCO5)c3n2)cc1`, the % of inhibition in [1] was 10%.
As to `O=C(NOC[C@H](O)CO)c1ccc(F)c(F)c1Nc1ccc(I)cc1F`, in [2], the % of control is 100%.
Regarding `CN1Cc2nccc(-c3cn(C)nc3-c3ccc(F)cc3)c2C1=O`, the % of inhibition in assay [3] was -1%.
For the compound `CC[C@@H]1[C@H](F)C(=O)N[C@@H]1COc1nccc2cc(C(N)=O)c(OC)cc12` [ZIMLOVISERTIB], the % of inhibition in assay [4] was -4.2%; in assay [5], 14.5%.
As to `CCN(CC)CCCCNc1ncc2cc(-c3cc(OC)cc(OC)c3)c(NC(=O)NC(C)(C)C)nc2n1`, in assay [6], the % of control amounted to 100%.
With `COc1cc(Nc2nc(C)cc(-c3cnn4nc(OC)ccc34)n2)cc(C(F)(F)F)c1`, the % of control in assay [7], in assay [8] and in assay [9] was 100% each time.
As for `CN(C)CCCOc1ccc(-c2cc(NCCCn3cccn3)nc(S(C)(=O)=O)n2)cc1`, in [10], the dTM is under 2 K.
`O[C@H]1CC[C@H](Nc2ncc3nc(Nc4c(F)cc(F)cc4F)n([C@H]4CCOC4)c3n2)CC1` registered a % of control in [11] of 93%.
